Experimental data taken from the supplement of paper PMC10307832.

Legend:
Assay in all cases: relative viability (nuclei count vs DMSO), 5 days (fraction); higher = more cells survive
[1] = compound: C[As](C)SC[C@H](NC(=O)CC[C@H](N)C(=O)O)C(=O)NCC(=O)O [Darinaparsin] + Cc1nc(NC(=O)N2CCC[C@H]2C(N)=O)sc1-c1ccnc(C(C)(C)C(F)(F)F)c1 [Alpelisib] (partner 2 µM)
Method in brief: (§1)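 After 5 days of treatment, lung cancer cells in 1536-well plates were fixed and stained in a single step (final 0.05% Triton X-100, 1% formaldehyde, 1 ug/ml Hoechst) and their nuclei counted on 4× images. Treatment had been applied by pin tool the day after seeding as one drug alone or as a fixed anchor-drug dose with five library-drug doses (not always all listed) in √10 steps. Relative viability is the nuclei count of treated wells divided by that of vehicle wells, and values are medians of duplicate plates.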

[2] = compound: C1CC2=C(C1)C=C(C=C2)OC3=NC(=C4C(=N3)N(C=N4)CC5=CC=C(C=C5)C6=CC=CC=C6)N[C@@H](CC7=CC=CC=C7)CO [QS11] + COc1cccc2cc(-c3nc([C@H]4CC[C@H](C(=O)O)CC4)n4ncnc(N)c34)[nH]c12 [OSI-027] (partner 0.5 µM)
Method in brief: as §1

[3] = compound: C1CC2=C(C1)C=C(C=C2)OC3=NC(=C4C(=N3)N(C=N4)CC5=CC=C(C=C5)C6=CC=CC=C6)N[C@@H](CC7=CC=CC=C7)CO [QS11] + O=C(CCCCCCC(=O)Nc1ccccc1)NO [Vorinostat] (partner 1 µM)
Method in brief: as §1

[4] = compound: CC1=C(C=C(C=C1)NC(=O)C2=CC(=CC=C2)C(C)(C)C#N)NC3=CC4=C(C=C3)N=CN(C4=O)C [AZ628] + COc1cccc2cc(-c3nc([C@H]4CC[C@H](C(=O)O)CC4)n4ncnc(N)c34)[nH]c12 [OSI-027] (partner 0.5 µM)
Method in brief: as §1

Cell Line | relative viability ([1]; first compound 0.08 µM) | relative viability ([1]; first compound 0.8 µM) | relative viability ([1]; first compound 2.53 µM) | relative viability ([1]; first compound 8 µM) | relative viability ([2]; first compound 0.08 µM) | relative viability ([2]; first compound 0.253 µM) | relative viability ([2]; first compound 0.8 µM) | relative viability ([2]; first compound 2.53 µM) | relative viability ([2]; first compound 8 µM) | relative viability ([3]; first compound 0.08 µM) | relative viability ([3]; first compound 0.253 µM) | relative viability ([3]; first compound 0.8 µM) | relative viability ([3]; first compound 2.53 µM) | relative viability ([3]; first compound 8 µM) | relative viability ([4]; first compound 0.08 µM) | relative viability ([4]; first compound 0.253 µM) | relative viability ([4]; first compound 0.8 µM) | relative viability ([4]; first compound 2.53 µM) | relative viability ([4]; first compound 8 µM)
NCI-H1793 | 0.716 | 0.935 | 0.643 | 0.958 | 0.248 | 0.27 | 0.277 | 0.341 | 0.332 | 0.734 | 0.528 | 0.808 | 0.88 | 0.702 | 0.355 | 0.226 | 0.252 | 0.247 | 0.193
HARA | 0.868 | 0.682 | 0.756 | 1.19 | 0.41 | 0.453 |  | 0.457 | 0.595 | 0.498 | 0.565 |  | 0.506 | 0.431 | 0.322 | 0.432 | 0.472 | 0.439 | 0.245
NCI-H2347 | 1.21 | 1.09 | 1.04 | 1.09 | 0.489 | 0.474 | 0.411 | 0.371 | 0.347 | 0.596 | 0.579 | 0.541 | 0.662 | 0.56 | 0.337 | 0.377 | 0.396 | 0.339 | 0.254
ABC-1 | 0.966 | 1.16 | 1.07 | 1.28 | 0.477 | 0.348 | 0.519 | 0.492 | 0.457 | 0.886 | 0.834 | 1.02 | 0.931 | 1.11 | 0.644 | 0.402 | 0.53 | 0.491 | 0.297
NCI-H2342 |  |  |  |  | 0.643 | 0.703 | 0.611 | 0.663 | 0.636 | 0.759 | 0.733 | 0.947 | 0.669 | 0.746 | 0.717 | 0.589 | 0.569 | 0.64 | 0.669
NCI-H2126 | 0.803 | 0.737 | 0.616 | 0.804 | 0.685 | 0.697 | 0.727 | 0.653 | 0.646 | 0.801 | 0.777 | 0.717 | 0.732 | 0.661 | 0.793 | 0.655 | 0.651 | 0.728 | 0.594
HOP-62 | 1.24 | 0.755 | 0.786 | 0.991 | 0.879 | 0.845 | 0.811 | 0.65 | 0.837 | 0.556 | 0.564 | 0.533 | 0.416 | 0.447 | 0.828 | 0.857 | 0.831 | 0.857 | 0.43
NCI-H2085 | 1.07 | 1 | 1.03 | 0.957 | 0.724 | 0.655 | 0.886 | 0.724 | 0.831 | 0.743 | 0.72 | 0.699 | 0.912 | 0.806 | 0.913 | 0.754 | 0.803 | 0.667 | 0.332
NCI-H1944 | 0.946 | 0.912 | 0.823 | 0.905 | 0.41 | 0.387 |  | 0.378 | 0.314 | 0.485 | 0.491 |  | 0.424 | 0.505 | 0.439 | 0.335 | 0.331 | 0.319 | 0.301
EMC-BAC-2 | 0.894 | 0.687 | 0.709 | 0.888 | 0.391 | 0.397 | 0.452 | 0.373 | 0.337 | 0.492 | 0.434 | 0.385 | 0.334 | 0.325 | 0.397 | 0.425 | 0.477 | 0.436 | 0.448
NCI-H2228 | 1.03 | 0.992 | 0.735 | 0.933 | 0.534 | 0.424 | 0.538 | 0.74 | 0.597 | 0.62 | 0.535 | 0.61 | 1.17 | 0.741 | 0.627 | 0.521 | 0.519 | 0.623 | 0.281
A-427 | 1.11 | 1.05 | 1.08 | 1.12 | 0.411 | 0.455 |  | 0.507 | 0.408 | 0.902 | 0.844 |  | 0.877 | 0.844 | 0.336 | 0.286 | 0.236 | 0.197 | 0.169
EPLC-272H | 1.03 | 0.931 | 0.851 | 1.15 |  | 0.287 | 0.253 | 0.259 | 0.26 | 0.371 | 0.55 | 0.442 | 0.479 | 0.276 | 0.211 | 0.258 | 0.295 | 0.238 | 0.171
A549 | 0.973 | 0.812 | 0.746 | 1.08 |  |  |  |  |  |  |  |  |  |  |  |  |  |  | 
NCI-H358 | 0.922 | 0.87 | 0.817 | 0.994 | 0.774 | 0.854 | 0.888 | 0.849 | 1.01 | 0.64 | 0.602 | 0.782 | 0.65 | 0.49 | 0.647 | 0.602 | 0.403 | 0.354 | 0.286
NCI-H2009 | 1.25 | 1.19 | 1.06 | 1.16 | 0.66 | 0.639 | 0.53 | 0.448 | 0.462 | 0.757 | 0.699 | 0.635 | 0.707 | 0.603 | 0.537 | 0.452 | 0.287 | 0.327 | 0.243
HCC-827 | 1.05 | 1.04 | 1.01 | 1.04 | 0.845 | 0.855 | 0.754 | 0.862 | 1.01 | 0.749 | 0.927 | 0.672 | 0.944 | 0.899 | 0.741 | 0.82 | 0.796 | 0.703 | 0.418
NCI-H322M | 0.89 | 0.692 | 0.632 | 0.787 | 0.549 | 0.607 | 0.636 | 0.687 | 0.732 | 0.858 | 0.997 | 1.05 | 1.16 | 1.41 | 0.503 | 0.534 | 0.541 | 0.532 | 0.482
